{"source": "patent US5750540A", "about": "“1,4-di-substituted piperidine derivatives” (Banyu Pharmaceutical Co., Ltd., priority 1995, dated 1998)", "key": {"muscarinic M2 receptors": {"biological_target": "T1, muscarinic M2 receptors (Rattus norvegicus, UniProt P10980)", "T1 construct": "a membrane specimen from the heart was used as the membrane specimen; from tissue; host or cells: rat heart membranes (SD rat)", "T1 sequence (P10980 1-466)": "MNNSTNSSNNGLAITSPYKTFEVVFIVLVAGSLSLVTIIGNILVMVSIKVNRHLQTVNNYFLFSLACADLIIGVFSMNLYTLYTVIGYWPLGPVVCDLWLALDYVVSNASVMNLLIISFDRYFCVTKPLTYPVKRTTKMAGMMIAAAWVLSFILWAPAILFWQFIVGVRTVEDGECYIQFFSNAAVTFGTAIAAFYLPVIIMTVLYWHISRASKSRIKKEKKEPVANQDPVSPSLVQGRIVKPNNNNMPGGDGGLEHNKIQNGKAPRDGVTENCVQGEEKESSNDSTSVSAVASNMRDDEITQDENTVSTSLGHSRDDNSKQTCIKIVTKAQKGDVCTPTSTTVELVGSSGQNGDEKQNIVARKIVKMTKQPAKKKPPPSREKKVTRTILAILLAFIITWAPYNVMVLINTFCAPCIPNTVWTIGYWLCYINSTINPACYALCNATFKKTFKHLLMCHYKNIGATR", "experiment": "Inhibition of binding to muscarinic M2 receptors ([3H]-N-methylscopolamine, heart membrane)", "settings": "0.2 nM [3H]-N-methylscopolamine", "experimental": "The compounds of formula [I] in accordance with the present invention have a potent and selective inhibitory effect on binding to muscarinic receptors, as well as a potent and selective antagonistic effect on muscarinic receptors both in vitro and in vivo. […] In these tests, their inhibitory and antagonistic effects were expressed in terms of the dissociation constant (Ki) of each test compound which was calculated from its concentration (IC50 ) causing a 50% inhibition of the binding of a labeled ligand to muscarinic receptors. As the labeled ligand, [^3 H]-telenzepine was used for the muscarinic M1 receptors and [^3 H]-N-methylscopolamine for the muscarinic M2 and M3 receptors.\nA male SD strain rat (purchased from Nippon Charles River Co., Ltd.), weighing about 250-350 g, was sacrificed, and the cerebral cortex, heart and lacrimal glands were excised. Using a Polytron (setting 5), each organ was homogenized in 5 volumes of an ice-cold buffer solution (pH 7.4) containing 50 mM tris-HCl, 5 mM magnesium chloride, 1 mM trisodium ethylenediaminetetraacetate and 20% sucrose. The resulting homogenate was centrifuged at 3,000×g at 4° C. for 15 minutes, and the supernatant was filtered through gauze and ultracentrifuged at 100,000×g at 4° C. for 45 minutes. The resulting precipitate was suspended in an ice-cold buffer solution (pH 7.4) containing 50 mM tris-HCl and 5 mM magnesium chloride (hereinafter referred briefly to as \"tris buffer\") and ultracentrifuged at 100,000×g at 4° C. for 45 minutes. The resulting precipitate was suspended in tris buffer so as to give a concentration of 50 mg/ml and stored at -80° C. till use. The membrane specimens so prepared were thawed prior to use and submitted to tests for the inhibition of binding to muscarinic receptors.\n3) Tests for the inhibition of binding to the muscarinic M2 receptors\nThe nonspecific binding of [^3 H]-N-methylscopolamine to receptors was determined by the addition of 1 mM N-methylscopolamine."}, "[1]": {"biological_target": "T2, intestinal M3 receptors (ileum) (Rattus norvegicus, UniProt P08483)", "T2 construct": "the ileum was excised; from tissue; host or cells: isolated rat ileum", "T2 sequence (P08483 whole entry)": "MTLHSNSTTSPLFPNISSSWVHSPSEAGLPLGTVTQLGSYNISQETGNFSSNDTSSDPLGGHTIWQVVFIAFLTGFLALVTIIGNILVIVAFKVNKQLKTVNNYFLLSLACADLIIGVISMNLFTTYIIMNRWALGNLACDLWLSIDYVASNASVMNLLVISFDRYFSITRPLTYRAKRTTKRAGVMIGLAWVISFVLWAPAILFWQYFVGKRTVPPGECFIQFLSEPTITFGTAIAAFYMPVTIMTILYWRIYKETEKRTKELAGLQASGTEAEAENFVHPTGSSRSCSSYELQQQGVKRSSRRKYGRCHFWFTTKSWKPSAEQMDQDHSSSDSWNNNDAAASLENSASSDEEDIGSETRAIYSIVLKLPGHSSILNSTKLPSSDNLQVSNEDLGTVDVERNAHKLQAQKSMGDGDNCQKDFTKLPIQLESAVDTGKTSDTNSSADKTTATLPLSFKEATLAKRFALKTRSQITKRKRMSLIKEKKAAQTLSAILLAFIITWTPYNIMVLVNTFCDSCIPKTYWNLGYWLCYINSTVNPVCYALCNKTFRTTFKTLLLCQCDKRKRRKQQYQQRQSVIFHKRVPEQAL", "experiment": "Antagonism against intestinal M3 receptors in an isolated rat ileum", "settings": "in vitro, agonist carbachol", "experimental": "4) Tests for antagonism against the intestinal M3 receptors in an isolated rat ileum\nA male SD strain rat (weighing 300-500 g) was killed by exsanguination, and the ileum was excised. This ileum was cut to make ileum preparations having a length of 2 cm. A preparation was suspended in a Magnus tube filled with 20 ml of Krebs-Henseleit nutrient solution (gassed with 95% O2 -5% CO2 and kept at 32° C.) under a load of 0.5 g. The tension of the preparation was recorded isotonically. After being equilibrated for an hour, the preparation was made to contract twice by treatment with 10^-4 M carbachol, and the second contraction induced by carbachol was used as the reference contraction. After the preparation was washed with fresh solution to make a return to the base line, a test compound was administered thereto (or no treatment was made). Ten minutes later, carbachol (10^-8 to 10^-3 M) was cumulatively administered from the lowermost concentration in three-fold increasing doses to obtain a dose-response curve. The dose-response curve was constructed by expressing responses as percentages based on the reference contraction of the preparation. The antagonistic potency (KB value) of the test compound was determined from the degree of shift of the dose-response curve obtained by treatment with the test compound."}, "[2]": {"biological_target": "T3, airway M3 receptors (trachea) (Rattus norvegicus, UniProt P08483)", "T3 construct": "the trachea was excised; from tissue; host or cells: isolated rat trachea", "T3 sequence (P08483 whole entry)": "as above", "experiment": "Antagonism against airway M3 receptors in an isolated rat trachea", "experimental": "3) Tests for antagonism against the airway M3 receptors in an isolated rat trachea\nThese tests were performed according to an ordinary method. A male SD strain rat (weighing 300-500 g) was killed by exsanguination, and the trachea was excised. Annular segments (2 mm wide) were cut out from the trachea and cut open at the anterior cartilage part to make transversely sectioned trachea preparations. A preparation was suspended in a Magnus tube filled with 5 ml of Krebs-Henseleit nutrient solution (gassed with 95% O2 -5% CO2 and kept at 32° C.) with an initial tension of 1.0 g and a resting tension of 0.6 g. The tension of the preparation was recorded isometrically. After being equilibrated for an hour, the preparation was made to contract twice by treatment with 10^-4 M carbachol, and the second contraction induced by carbachol was used as the reference contraction. After the preparation was washed with fresh solution to make a return to the base line, a test compound was administered thereto (or no treatment was made). Ten minutes later, carbachol (10^-8 to 10^-3 M) was cumulatively administered in three-fold increasing doses to obtain a dose-response curve. The dose-response curve was constructed by expressing responses as percentages based on the reference contraction of the preparation. The antagonistic potency (KB value) of the test compound (i.e., a compound in accordance with the present invention) was determined from the degree of shift of the dose-response curve obtained by treatment with the test compound."}}}
{"smiles": "CC(C)=CCCN1CCC(NC(=O)C(O)(c2ccccc2)C2CCC2)CC1", "note": "(centres unmarked) [Example 1, N-[1-(4-methyl-3-pentenyl)-piperidin-4-yl]-2-cyclobutyl-2-hydroxy-2-phenylacetamide]", "values": [{"measurement": "Ki", "setting": "muscarinic M2 receptors", "value": 860, "unit": "nM"}, {"measurement": "Kb", "setting": "[1]", "value": 24, "unit": "nM"}, {"measurement": "Kb", "setting": "[2]; in vitro, isolated rat trachea, agonist carbachol", "value": 19, "unit": "nM"}, {"measurement": "M2/M3 *", "setting": "[2]; ratio of KB, right atrium M2 over trachea M3 (* Trachea M3)", "value": 79}, {"measurement": "M1/M3 *", "setting": "[2]; ratio of KB, vas deferens M1 over trachea M3 (* Trachea M3)", "value": 6.3}]}
